According to publication PMC12675537, “Molecular basis for multidrug efflux by an anaerobic-associated RND transporter” (Nature Communications, 2025):

Assays:
MdtF [1] = target: T1, MdtF (Escherichia coli, UniProt P37637); experiment: fluorescence polarisation; thermal stabilisation (CD, DSC, nanoDSF); type: binding
T1 construct: MdtF-6xHis (C-terminal His tag) in SMALP native-lipid nanodiscs; homotrimer

MdtF [2] = target: T2, MdtF (Escherichia coli, UniProt P37637, V610F); experiment: fluorescence polarisation Kd; thermal stabilisation (CD, DSC, nanoDSF); type: binding
T2 construct: MdtF-6xHis (C-terminal His tag) in SMALP native-lipid nanodiscs; homotrimer
T2 sequence (P37637 1-1037 V610F): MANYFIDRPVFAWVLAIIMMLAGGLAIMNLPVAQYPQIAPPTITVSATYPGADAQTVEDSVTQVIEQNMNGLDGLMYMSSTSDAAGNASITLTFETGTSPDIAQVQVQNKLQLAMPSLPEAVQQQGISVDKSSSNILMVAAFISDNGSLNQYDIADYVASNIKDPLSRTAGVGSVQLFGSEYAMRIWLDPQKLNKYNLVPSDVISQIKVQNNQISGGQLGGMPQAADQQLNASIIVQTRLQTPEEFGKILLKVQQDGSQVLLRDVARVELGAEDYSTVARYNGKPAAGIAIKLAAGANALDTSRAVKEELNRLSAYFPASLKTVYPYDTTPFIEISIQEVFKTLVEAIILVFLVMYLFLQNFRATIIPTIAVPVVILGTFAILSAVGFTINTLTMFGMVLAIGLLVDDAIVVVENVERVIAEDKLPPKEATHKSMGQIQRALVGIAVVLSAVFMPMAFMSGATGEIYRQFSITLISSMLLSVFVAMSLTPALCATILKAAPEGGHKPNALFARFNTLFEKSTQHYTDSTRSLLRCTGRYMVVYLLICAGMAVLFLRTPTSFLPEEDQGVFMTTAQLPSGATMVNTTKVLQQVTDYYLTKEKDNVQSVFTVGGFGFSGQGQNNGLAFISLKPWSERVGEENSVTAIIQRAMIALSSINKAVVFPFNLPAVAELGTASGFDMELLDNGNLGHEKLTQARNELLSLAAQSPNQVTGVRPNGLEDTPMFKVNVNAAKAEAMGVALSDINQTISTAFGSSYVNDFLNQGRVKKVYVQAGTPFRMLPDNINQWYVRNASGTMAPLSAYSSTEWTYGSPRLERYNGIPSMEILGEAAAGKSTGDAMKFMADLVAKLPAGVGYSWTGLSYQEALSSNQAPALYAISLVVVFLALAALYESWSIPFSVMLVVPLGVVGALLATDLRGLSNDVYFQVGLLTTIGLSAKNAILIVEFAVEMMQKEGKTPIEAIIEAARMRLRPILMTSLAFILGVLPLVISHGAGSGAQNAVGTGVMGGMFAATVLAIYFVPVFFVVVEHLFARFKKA

cryo-EM structure = target: the molecule itself; experiment: cryo-EM structure

Which results are given for CC/N=c1\cc2oc3cc(NCC)c(C)cc3c(-c3ccccc3C(=O)OCC)c-2cc1C [R6G, Rhodamine 6G]?
Kd (MdtF [1]): 390 ± 90 nM; Kd (MdtF [2]): 720 ± 90 nM

B1: Escherichia coli multidrug transporter MdtF, wild type (MdtF-6xHis) in SMA lipid particles (natural protein)
chain: MANYFIDRPVFAWVLAIIMMLAGGLAIMNLPVAQYPQIAPPTITVSATYPGADAQTVEDSVTQVIEQNMNGLDGLMYMSSTSDAAGNASITLTFETGTSPDIAQVQVQNKLQLAMPSLPEAVQQQGISVDKSSSNILMVAAFISDNGSLNQYDIADYVASNIKDPLSRTAGVGSVQLFGSEYAMRIWLDPQKLNKYNLVPSDVISQIKVQNNQISGGQLGGMPQAADQQLNASIIVQTRLQTPEEFGKILLKVQQDGSQVLLRDVARVELGAEDYSTVARYNGKPAAGIAIKLAAGANALDTSRAVKEELNRLSAYFPASLKTVYPYDTTPFIEISIQEVFKTLVEAIILVFLVMYLFLQNFRATIIPTIAVPVVILGTFAILSAVGFTINTLTMFGMVLAIGLLVDDAIVVVENVERVIAEDKLPPKEATHKSMGQIQRALVGIAVVLSAVFMPMAFMSGATGEIYRQFSITLISSMLLSVFVAMSLTPALCATILKAAPEGGHKPNALFARFNTLFEKSTQHYTDSTRSLLRCTGRYMVVYLLICAGMAVLFLRTPTSFLPEEDQGVFMTTAQLPSGATMVNTTKVLQQVTDYYLTKEKDNVQSVFTVGGFGFSGQGQNNGLAFISLKPWSERVGEENSVTAIIQRAMIALSSINKAVVFPFNLPAVAELGTASGFDMELLDNGNLGHEKLTQARNELLSLAAQSPNQVTGVRPNGLEDTPMFKVNVNAAKAEAMGVALSDINQTISTAFGSSYVNDFLNQGRVKKVYVQAGTPFRMLPDNINQWYVRNASGTMAPLSAYSSTEWTYGSPRLERYNGIPSMEILGEAAAGKSTGDAMKFMADLVAKLPAGVGYSWTGLSYQEALSSNQAPALYAISLVVVFLALAALYESWSIPFSVMLVVPLGVVGALLATDLRGLSNDVYFQVGLLTTIGLSAKNAILIVEFAVEMMQKEGKTPIEAIIEAARMRLRPILMTSLAFILGVLPLVISHGAGSGAQNAVGTGVMGGMFAATVLAIYFVPVFFVVVEHLFARFKKA
notes: also called MdtF^WT; apo-MdtF^WT; source: E. coli C43(DE3) ΔacrAB, extracted from membranes with SMA 2000 into SMALPs, purified (Ni-NTA, SEC)
How did the “stoichiometry N” value (cryo-EM structure) turn out when B1 was run?
Its value is 3.

B2: Escherichia coli multidrug transporter MdtF with the single-point mutation V610F (MdtF-6xHis) in SMA lipid particles (natural protein)
chain: MANYFIDRPVFAWVLAIIMMLAGGLAIMNLPVAQYPQIAPPTITVSATYPGADAQTVEDSVTQVIEQNMNGLDGLMYMSSTSDAAGNASITLTFETGTSPDIAQVQVQNKLQLAMPSLPEAVQQQGISVDKSSSNILMVAAFISDNGSLNQYDIADYVASNIKDPLSRTAGVGSVQLFGSEYAMRIWLDPQKLNKYNLVPSDVISQIKVQNNQISGGQLGGMPQAADQQLNASIIVQTRLQTPEEFGKILLKVQQDGSQVLLRDVARVELGAEDYSTVARYNGKPAAGIAIKLAAGANALDTSRAVKEELNRLSAYFPASLKTVYPYDTTPFIEISIQEVFKTLVEAIILVFLVMYLFLQNFRATIIPTIAVPVVILGTFAILSAVGFTINTLTMFGMVLAIGLLVDDAIVVVENVERVIAEDKLPPKEATHKSMGQIQRALVGIAVVLSAVFMPMAFMSGATGEIYRQFSITLISSMLLSVFVAMSLTPALCATILKAAPEGGHKPNALFARFNTLFEKSTQHYTDSTRSLLRCTGRYMVVYLLICAGMAVLFLRTPTSFLPEEDQGVFMTTAQLPSGATMVNTTKVLQQVTDYYLTKEKDNVQSVFTFGGFGFSGQGQNNGLAFISLKPWSERVGEENSVTAIIQRAMIALSSINKAVVFPFNLPAVAELGTASGFDMELLDNGNLGHEKLTQARNELLSLAAQSPNQVTGVRPNGLEDTPMFKVNVNAAKAEAMGVALSDINQTISTAFGSSYVNDFLNQGRVKKVYVQAGTPFRMLPDNINQWYVRNASGTMAPLSAYSSTEWTYGSPRLERYNGIPSMEILGEAAAGKSTGDAMKFMADLVAKLPAGVGYSWTGLSYQEALSSNQAPALYAISLVVVFLALAALYESWSIPFSVMLVVPLGVVGALLATDLRGLSNDVYFQVGLLTTIGLSAKNAILIVEFAVEMMQKEGKTPIEAIIEAARMRLRPILMTSLAFILGVLPLVISHGAGSGAQNAVGTGVMGGMFAATVLAIYFVPVFFVVVEHLFARFKKA
notes: also called MdtF^V610F; apo-MdtF^V610F; source: E. coli C43(DE3) ΔacrAB, extracted from membranes with SMA 2000 into SMALPs, purified (Ni-NTA, SEC)
Does B2 bind (cryo-EM structure)?
Result: binds
